Measurements published in patent US4226883A, “Carbamate derivatives and method for manufacture thereof” (priority 1974, dated 1980).
Read-outs that look alike come from different tables or passages of the source.

Key:
[1] = system: resistant green rice leafhoppers (R); details: ratio of the resistant strain to the susceptible strain (LD50); 1440 min
Method: (1) A 20-mg portion of a given test compound was weighed out and dissolved in 10 ml of acetone. The resultant solution was diluted at proper times with acetone.
(2) With a micro-syringe, the acetone solution of the test compound was topically applied to the thoracic region of female green rice leafhoppers at a fixed dose of 0.2 μl per head.
(3) The female green rice leafhoppers thus treated were placed in a plastic cup prepared in advance (measuring 7 cm in diameter and 3.5 cm in depth and containing rice seeds) and kept at a constant temperature of 26±1° C. After 24 hours' standing, the dead insects were counted.
In the case of a mixed insecticide, the LD50 was shown as a total dosage.

[2] = system: cholinesterase (ChE), resistant strain; assay type: biochemical, green rice leafhopper, Nephotettix cincticeps; details: for Inhibition of Cholinesterase R/S (resistant ratio): ratio of the resistant strain to the susceptible strain (I50), 30 min; for IC50 / rate of inhibition (%) in 10^-3 M, R: resistant strain; for IC50: 50% inhibition concentration, 30° C. 30 min with inhibitor, read-out: Inhibition of Cholinesterase I50 (M) R
Method: After centrifuged (30,000 g, 10 min.), the supernatant was used as the source of ChE.
(§1) (2) Inhibition: 1.0 ml of enzyme solution was incubated with 0.1 ml of inhibitor which diluted with acetone at 30° C. for 30 min. ((2) solution).
(§2) (3) Determination of ChE activity: 1.0 ml of acetylthiochline (3.5/2×10^-2 M), 1.0 ml of DTNB (5,5'-dithiobis-2-nitrobenzoic acid, 2.5×10^-4 M) and 4.0 ml of phosphate buffer (1/15 M, pH 7.4) were added to the (2) solution and incubated at 30° C. for 10 min.

[3] = biological target: cholinesterase (ChE), susceptible strain; assay: Inhibition of cholinesterase (acetylthiocholine method), susceptible strain enzyme; assay type: biochemical, green rice leafhopper, Nephotettix cincticeps; details: for IC50: 50% inhibition concentration, 30° C. 30 min with inhibitor, read-out: Inhibition of Cholinesterase I50 (M) S
Method: The activity of ChE was performed by the acethyethiocholine method [Ellman (1961), Biochemical Pharmacology 7: 88-95].
[…]. After centrifuged (30,000 g, 10 min.), the supernatant was used as the source of ChE.
as §1
as §2, with “min. After incubation, […] of eserine (2×10^-3 M) was added in order to stop the enzyme reaction and the optical density of the yellow solution was measured at 412 mμ on the spectrophotometer.” for “min.”

[4] = system: green rice leafhoppers of the strain RN; assay: Test Example 3: dust spray test (20 mesh metal gauze cylinder); assay type: in vivo, Nephotettix cincticeps; details: for Effect of individual compound (RN), death ratio (%) (Table 9): dust, compound alone, RN strain; for death ratio (%), mixture with Compound No. 1 / death ratio (%), mixture with Compound No. 6* / death ratio (%), mixture with Compound No. 24* / death ratio (%), mixture with Compound No. 35* / death ratio (%), mixture with Compound No. 40* / death ratio (%), mixture with Compound No. 49* / death ratio (%), mixture with Compound No. 81* / death ratio (%), mixture with Compound No. 118* / death ratio (%), mixture with Carbofuran / death ratio (%), mixture with Methomyl: Table 9, RN; for death ratio (%), mixture with Compound No. 1: dust mixed with 1; for death ratio (%), mixture with Compound No. 6*: dust mixed with 6*; for death ratio (%), mixture with Compound No. 24*: dust mixed with 24*; for death ratio (%), mixture with Compound No. 35*: dust mixed with 35*; for death ratio (%), mixture with Compound No. 40*: dust mixed with 40*; for death ratio (%), mixture with Compound No. 49*: dust mixed with 49*; for death ratio (%), mixture with Compound No. 81*: dust mixed with 81*; for death ratio (%), mixture with Compound No. 118*: dust mixed with 118*; for death ratio (%), mixture with Carbofuran: dust mixed with Carbofuran; for death ratio (%), mixture with Methomyl: dust mixed with Methomyl
Method: The insecticides in the form of dust were tested for insecticidal activity.
(§3) The test for insecticidal activity was performed by the following procedure. […] The dust of a test compound (pulverized by means of a shaking pulverizer made by Taira Kosakusho, Ltd.) was applied onto the tube contents at a prescribed rate by spraying from outside the metal gauze by means of a bell-jar duster. The dust of the test compound was prepared uniformly mixing 2 parts of the dust of the individual compound or 1 part each of the dusts of the mixture components (total 2 parts) and 98 parts of a carrier obtained by mixing talc and clay in equal volumes.

[5] = system: green rice leafhoppers of the strain RN; assay: Test Example 4: dust test with 35 mesh metal gauze; assay type: in vivo, Nephotettix cincticeps
Method: as §3

Row | SMILES | Insecticidal Activity R/S (resistant ratio) [1] | Inhibition of Cholinesterase R/S (resistant ratio) [2] | IC50 [2] [M] | IC50 [3] [M] | other results
1 | CCNC(=O)Oc1ccccc1C(C)C [Compound 2, 2-isopropylpheny-N-ethylcarbamate] | 2.1 | 1.6 | 5.2e-05 | 3.2e-05 | –
2 | CCCCNC(=O)Oc1ccccc1C(C)CC (centres unmarked) [Compound 9] | < 1.0 | < 0.1 | 0.00014 | > 0.001 | –
3 | CCNC(=O)Oc1cccc(C(C)C)c1 [Compound 12] | 3.7 | 0.5 | 1.7e-05 | 3.7e-05 | –
4 | CCNC(=O)Oc1cccc(C(C)CC)c1 (centres unmarked) [Compound 16] | 3.7 | 0.9 | 5.6e-06 | 6.5e-06 | –
5 | CCCCNC(=O)Oc1cccc(C(C)CC)c1 (centres unmarked) [Compound 18] | 0.9 | 0.09 | 4.3e-06 | 5e-05 | –
6 | CCCC(C)c1cccc(OC(=O)NCC)c1 (centres unmarked) [Compound 20] | 1.5 | 1.2 | 4.1e-06 | 3.4e-06 | –
7 | CCCCNC(=O)Oc1cccc(C(C)CCC)c1 (centres unmarked) [Compound 22] | 0.9 | 0.1 | 6.3e-06 | 5.1e-05 | –
8 | CCc1cccc(OC(=O)NC)c1 [Compound 29, reference compound] | 14.9 | 41.4 | 0.00012 | 2.9e-06 | –
9 | CCNC(=O)Oc1cccc(CC)c1 [Compound 30] | 1.7 | 0.8 | 0.00016 | 0.0002 | –
10 | C=CCNC(=O)Oc1cccc(C(C)(C)C)c1 [Compound 34] | 1.1 | 0.3 | 8.9e-06 | 2.6e-05 | –
11 | CCNC(=O)Oc1cc(C)cc(C)c1 [Compound 41, 3.5-dimethylphenyl-N-ethylcarbamate] | 2.0 | 0.7 | 7.9e-05 | 0.00011 | mortality at 100 mg/cylinder ([4]; 2% dust, 100 mg, 24 hr, read-out: Mortality (%) after 24 hr., 100 mg Spray (Table 7)): 50%; mortality at 250 mg/cylinder ([4]; 2% dust, 250 mg, 24 hr, read-out: Mortality (%) after 24 hr., 250 mg Spray (Table 7)): 70%
12 | CNC(=O)Oc1cccc2ccccc12 [Compound 49, 1-naphthyl-N-methylcarbamate] | – | – | – | – | Effect of individual compound (RN), death ratio (%) (Table 9) [4]: 0%; mortality at 100 mg ([5]; 1 h, read-out: Death ratio (%) 1 hr., Dusting amount 100 mg): 0%; mortality at 250 mg ([5]; 1 h, read-out: Death ratio (%) 1 hr., Dusting amount 250 mg): 0%; mortality at 500 mg ([5]; 1 h, read-out: Death ratio (%) 1 hr., Dusting amount 500 mg): 0%; mortality at 100 mg ([5]; 2 h, read-out: Death ratio (%) 2 hrs., Dusting amount 100 mg): 0%; mortality at 250 mg ([5]; 2 h, read-out: Death ratio (%) 2 hrs., Dusting amount 250 mg): 0%; mortality at 500 mg ([5]; 2 h, read-out: Death ratio (%) 2 hrs., Dusting amount 500 mg): 0%; mortality at 100 mg ([5]; 4 h, read-out: Death ratio (%) 4 hrs., Dusting amount 100 mg): 0%; mortality at 250 mg ([5]; 4 h, read-out: Death ratio (%) 4 hrs., Dusting amount 250 mg): 0%; mortality at 500 mg ([5]; 4 h, read-out: Death ratio (%) 4 hrs., Dusting amount 500 mg): 0%; mortality at 100 mg ([5]; 16 h, read-out: Death ratio (%) 16 hrs., Dusting amount 100 mg): 0%; mortality at 250 mg ([5]; 16 h, read-out: Death ratio (%) 16 hrs., Dusting amount 250 mg): 0%; mortality at 500 mg ([5]; 16 h, read-out: Death ratio (%) 16 hrs., Dusting amount 500 mg): 0%; mortality at 100 mg ([5]; 24 h, read-out: Death ratio (%) 24 hrs., Dusting amount 100 mg): 0%; mortality at 250 mg ([5]; 24 h, read-out: Death ratio (%) 24 hrs., Dusting amount 250 mg): 0%; mortality at 500 mg ([5]; 24 h, read-out: Death ratio (%) 24 hrs., Dusting amount 500 mg): 0%
13 | CNC(=O)Oc1ccccc1OC [Compound 76, reference compound] | – | 32.3 | 0.00055 | 1.7e-05 | death ratio (%), mixture with Compound No. 1 [4]: 15.0%; death ratio (%), mixture with Compound No. 6* [4]: 0%; death ratio (%), mixture with Compound No. 24* [4]: 20.0%; death ratio (%), mixture with Compound No. 35* [4]: 10.0%; death ratio (%), mixture with Compound No. 40* [4]: 0%; death ratio (%), mixture with Compound No. 49* [4]: 0%; death ratio (%), mixture with Compound No. 81* [4]: 35.0%; death ratio (%), mixture with Compound No. 118* [4]: 45.0%; death ratio (%), mixture with Carbofuran [4]: 60.0%; death ratio (%), mixture with Methomyl [4]: 55.0%; Effect of individual compound (RN), death ratio (%) (Table 9) [4]: 0%
14 | CCOc1ccccc1OC(=O)NC [Compound 79, reference compound] | – | 12.0 | 0.0003 | 2.5e-05 | death ratio (%), mixture with Compound No. 1 [4]: 0%; death ratio (%), mixture with Compound No. 6* [4]: 0%; death ratio (%), mixture with Compound No. 24* [4]: 0%; death ratio (%), mixture with Compound No. 35* [4]: 0%; death ratio (%), mixture with Compound No. 40* [4]: 10.0%; death ratio (%), mixture with Compound No. 49* [4]: 0%; death ratio (%), mixture with Compound No. 81* [4]: 5.0%; death ratio (%), mixture with Compound No. 118* [4]: 25.0%; death ratio (%), mixture with Carbofuran [4]: 40.0%; Effect of individual compound (RN), death ratio (%) (Table 9) [4]: 0%
15 | CCOc1cccc(OC(=O)NC)c1 [Compound 92, reference compound] | – | 17.6 | 0.0003 | 1.7e-05 | death ratio (%), mixture with Compound No. 1 [4]: 0%; death ratio (%), mixture with Compound No. 6* [4]: 0%; death ratio (%), mixture with Compound No. 24* [4]: 0%; death ratio (%), mixture with Compound No. 35* [4]: 10.0%; death ratio (%), mixture with Compound No. 40* [4]: 5.0%; death ratio (%), mixture with Compound No. 49* [4]: 0%; death ratio (%), mixture with Compound No. 81* [4]: 0%; death ratio (%), mixture with Compound No. 118* [4]: 25.0%; death ratio (%), mixture with Carbofuran [4]: 20.0%; death ratio (%), mixture with Methomyl [4]: 40.0%; Effect of individual compound (RN), death ratio (%) (Table 9) [4]: 0%
16 | CNC(=O)Oc1ccccc1NC(C)C [Compound 110, reference compound] | – | 73.9 | 0.00017 | 2.3e-06 | –
17 | CNC(=O)Oc1ccc(SC)c(C)c1 [Compound 135, reference compound] | – | 3.5 | 3.5e-05 | 1e-05 | –
18 | CNC(=O)Oc1ccccc1 [Compound 140, reference compound] | – | – | > 0.001 | 0.00013 | rate of inhibition (%) in 10^-3 M, R [2]: 42.5%
19 | CCNC(=O)Oc1ccccc1 [Compound 141, phenyl-N-ethylcarbamate] | – | – | > 0.001 | > 0.001 | rate of inhibition (%) in 10^-3 M, R [2]: 43.4%; rate of inhibition (%) in 10^-3 M, S [3]: 30.4%
20 | CCCNC(=O)Oc1ccccc1 [Compound 142, phenyl-N-n-propylcarbamate] | – | < 0.6 | 0.00066 | > 0.001 | rate of inhibition (%) in 10^-3 M, S [3]: 12.0%
21 | CCCCNC(=O)Oc1ccccc1 [Compound 143] | – | – | > 0.001 | > 0.001 | rate of inhibition (%) in 10^-3 M, R [2]: 46.0%; rate of inhibition (%) in 10^-3 M, S [3]: 3.3%
22 | C=CCNC(=O)Oc1ccccc1 [Compound 144, phenyl-N-allylcarbamate] | – | < 0.5 | 0.00052 | > 0.001 | rate of inhibition (%) in 10^-3 M, S [3]: 10.00%
